Results published in ChEMBL document CHEMBL5661943, “ASAP - In vitro antiviral effect” (2024).

Experiments:
dengue virus type 2 [1] = assay: (§1) Functional immunofluorescence assay to measure dose dependent changes in antiviral-drug inhibitory efficacy against Dengue virus type 2 Thailand/16681/84 in Vero E6/TMPRSS2 cells (cotreated with P-gp inhibitor, Elacridar). Cells are treated with antiviral candidates that are serially diluted, following infection, cells are fixed. EC50 is reported via analysis of immunofluorescence staining. The assay has been performed by Icahn School of Medicine at Mount Sinai.; assay type: organism-based, Chlorocebus sabaeus, VeroE6/TMPRSS2; conditions: for EC90: P-gp concentration 2 uM, P-gp inhibitor Elacidar
dengue virus type 2 [2] = assay: Functional assay to measure dose dependent changes in antiviral-drug inhibitory efficacy against Dengue virus type 2 New Guinea C in Vero E6 miRFP670 cells (cotreated with P-gp inhibitor, CP100356). Cells are treated with antiviral candidates that are serially diluted, following infection, cells are fixed. EC50 is reported via analysis of fluorescence intensity using high-content imager. The …; assay type: organism-based, Chlorocebus sabaeus, Vero C1008; conditions: Dengue virus
Zika virus [3] = assay: Functional CPE-based assay to measure dose dependent changes in antiviral-drug inhibitory efficacy against Zika virus MR766 in Vero E6 miRFP670 cells. Cells are treated with antiviral candidates that are serially diluted. EC50 is reported via analysis of MTS assay as a readout of CPE. The assay has been performed by KU Leuven.; assay type: organism-based, Chlorocebus sabaeus, Vero C1008; conditions: Zika virus; for EC50: Vero C1008
Zika virus [4] = assay: EC50 is reported via analysis of immunofluorescence staining. The assay has been performed by Icahn School of Medicine at Mount Sinai.; assay type: functional, organism-based, Chlorocebus sabaeus, VeroE6/TMPRSS2; conditions: for EC90: P-gp concentration 2 uM, P-gp inhibitor Elacidar
Zika virus [5] = assay: as §1, with “Zika” for “Dengue”, “PRVABC59” for “type 2 Thailand/16681/84”, “cells.” for “cells (cotreated with P-gp inhibitor, Elacridar).”; assay type: organism-based, Chlorocebus sabaeus; conditions: for EC50: VeroE6/TMPRSS2
dengue virus type 2 [6] = assay: as §1, with “cells.” for “cells (cotreated with P-gp inhibitor, Elacridar).”; assay type: organism-based, Chlorocebus sabaeus

O=C(Nc1cc(Cl)cc(C(=O)Nc2cccc(C3CCNCC3)c2)c1)OCc1ccccc1
EC90 (dengue virus type 2 [1]; Baseline response 0 %, Hill slope -7.018, Maximum measured 136.667 %, Maximum response 100 %, Minimum measured 60.314 %, R squared 0.441): > 1.85 µM
EC50 (dengue virus type 2 [1]; Dengue virus, VeroE6/TMPRSS2): 3.24 µM
EC90 (dengue virus type 2 [1]; Dengue virus, VeroE6/TMPRSS2, Baseline response 0 %, Hill slope -0.392, Maximum measured 120.272 %, Maximum response 100 %, Minimum measured 45.482 %, R squared 0.27): > 3.33 µM
EC50 (dengue virus type 2 [1]; veroe6/tmprss2): > 1.85 µM
EC50 (dengue virus type 2 [2]; Vero C1008): 4.04 µM
EC90 (dengue virus type 2 [2]; Vero C1008, Baseline response 0 %, EC90 CI (lower) 2.724 uM, EC90 CI (upper) 4.009 uM, Hill slope -10.989, Maximum measured 107.904 %, Maximum response 100 %, Minimum measured 0.838 %, P-gp concentration 500 nM, R squared 0.983, P-gp inhibitor CP100356): 4.93 µM
EC50 (Zika virus [3]): > 50 µM
EC90 (Zika virus [3]; Vero C1008, Maximum measured 1.3 %, Minimum measured -10.726 %): > 50 µM
EC50 (Zika virus [4]; Zika virus, VeroE6/TMPRSS2): 3.24 µM
EC90 (Zika virus [4]; Zika virus, VeroE6/TMPRSS2, Maximum measured 120.28 %, Minimum measured 106.347 %): > 1.85 µM
EC90 (Zika virus [4]; Zika virus, VeroE6/TMPRSS2, Baseline response 0 %, Hill slope -10.935, Maximum measured 129.824 %, Maximum response 100 %, Minimum measured 42.275 %, R squared 0.16): > 3.33 µM
EC50 (Zika virus [4]; veroe6/tmprss2): > 1.85 µM

O=C(Nc1cc(Cl)cc(C(=O)Nc2cccc(-n3nn[nH]c3=O)c2)c1)OCc1ccccc1
EC50 (Zika virus [5]): 45.7 µM
EC90 (Zika virus [5]; VeroE6/TMPRSS2, Baseline response 0 %, Hill slope -14.888, Maximum measured 123.167 %, Maximum response 100 %, Minimum measured 20.725 %, R squared 0.524): > 50 µM
EC50 (dengue virus type 2 [1]; Dengue virus, VeroE6/TMPRSS2): 38.1 µM
EC90 (dengue virus type 2 [1]; Dengue virus, VeroE6/TMPRSS2, Baseline response 0 %, Hill slope -4.745, Maximum measured 70.688 %, Maximum response 60 %, Minimum measured 12.915 %, R squared 0.282): > 50 µM
EC50 (dengue virus type 2 [2]; Vero C1008): 44.1 µM
EC90 (dengue virus type 2 [2]; Vero C1008): 48.8 µM
EC50 (Zika virus [3]): > 50 µM
EC90 (Zika virus [3]; Vero C1008, Baseline response 0 %, Hill slope -0.529, Maximum measured 3.199 %, Maximum response 100 %, Minimum measured -1.205 %, R squared 0.435): > 50 µM
EC50 (Zika virus [4]; Zika virus, VeroE6/TMPRSS2): 0.828 µM
EC90 (Zika virus [4]; Zika virus, VeroE6/TMPRSS2, Baseline response 0 %, Hill slope -0.989, Maximum measured 91.506 %, Maximum response 100 %, Minimum measured 6.41 %, R squared 0.606): > 5.56 µM

O=C(O)c1cc(Cl)ccc1NS(=O)(=O)c1ccc(Oc2ccccc2Cl)cc1
EC50 (Zika virus [5]): > 50 µM
EC90 (Zika virus [5]; VeroE6/TMPRSS2, Baseline response 0 %, Hill slope 0.308, Maximum measured 143.489 %, Maximum response 100 %, Minimum measured 67.888 %, R squared 0.041): > 50 µM
EC50 (dengue virus type 2 [6]; VeroE6/TMPRSS2): < 0.023 µM
EC90 (dengue virus type 2 [6]; VeroE6/TMPRSS2, Baseline response 0 %, Hill slope -0.289, Maximum measured 50.892 %, Maximum response 100 %, Minimum measured 16.572 %, R squared 0.294): > 5.56 µM

O=C(Nc1cc(Cl)cc(C(=O)Nc2cccc(-c3nnn[nH]3)c2)c1)OCc1ccccc1
EC50 (Zika virus [5]): > 50 µM
EC90 (Zika virus [5]; VeroE6/TMPRSS2, Maximum measured 198.65 %, Minimum measured 79.352 %): > 50 µM
EC50 (dengue virus type 2 [1]; Dengue virus, VeroE6/TMPRSS2): 48.9 µM
EC90 (dengue virus type 2 [1]; Dengue virus, VeroE6/TMPRSS2, Baseline response 0 %, Hill slope -12.435, Maximum measured 130.492 %, Maximum response 60 %, Minimum measured 25.847 %, R squared 0.033): > 50 µM
EC50 (Zika virus [4]; Zika virus, VeroE6/TMPRSS2): 2.68 µM
EC90 (Zika virus [4]; Zika virus, VeroE6/TMPRSS2, Baseline response 0 %, Hill slope -0.321, Maximum measured 94.477 %, Maximum response 100 %, Minimum measured 40.195 %, R squared 0.392): > 16.7 µM

O=C(O)COc1cccc(NC(=O)c2cc(Cl)cc(NC(=O)OCc3ccccc3)c2)c1
EC50 (dengue virus type 2 [1]; Dengue virus, VeroE6/TMPRSS2): > 50 µM
EC90 (dengue virus type 2 [1]; Dengue virus, VeroE6/TMPRSS2, Maximum measured 97.013 %, Minimum measured 38.667 %): > 50 µM
EC50 (dengue virus type 2 [2]; Vero C1008): > 50 µM
EC90 (dengue virus type 2 [2]; Vero C1008, Maximum measured 107.555 %, Minimum measured 104.836 %, P-gp concentration 500 nM, P-gp inhibitor CP100356): > 50 µM
EC50 (Zika virus [3]): > 50 µM
EC90 (Zika virus [3]; Vero C1008, Maximum measured -[…], Minimum measured -2.209 %): > 50 µM
EC50 (Zika virus [4]; Zika virus, VeroE6/TMPRSS2): > 50 µM
EC90 (Zika virus [4]; Zika virus, VeroE6/TMPRSS2, Baseline response 0 %, Hill slope 0.101, Maximum measured 106.686 %, Maximum response 100 %, Minimum measured 54.693 %, R squared 0.072): > 50 µM

O=C(Nc1ccc2c(c1)CNC2)c1cc(Cl)cc(-n2cccc2)c1
EC50 (dengue virus type 2 [1]; Dengue virus, VeroE6/TMPRSS2): 15.1 µM
EC90 (dengue virus type 2 [1]; Dengue virus, VeroE6/TMPRSS2, Baseline response 0 %, Hill slope -12.71, Maximum measured 168.092 %, Maximum response 100 %, Minimum measured 22.727 %, R squared 0.109): > 16.7 µM
EC50 (dengue virus type 2 [2]; Vero C1008): 18.1 µM
EC90 (dengue virus type 2 [2]; Vero C1008, Baseline response 0 %, Hill slope -1.567, Maximum measured 91.76 %, Maximum response 100 %, Minimum measured 2.031 %, P-gp concentration 500 nM, R squared 0.898, P-gp inhibitor CP100356): > 50 µM
EC50 (Zika virus [3]): > 50 µM
EC90 (Zika virus [3]; Vero C1008, Baseline response 0 %, Hill slope 0.167, Maximum measured 17.974 %, Maximum response 100 %, Minimum measured 0.845 %, R squared 0.067): > 50 µM
EC50 (Zika virus [4]; Zika virus, VeroE6/TMPRSS2): > 5.56 µM
EC90 (Zika virus [4]; Zika virus, VeroE6/TMPRSS2, Maximum measured 131.342 %, Minimum measured 97.756 %): > 5.56 µM
EC90 (Zika virus [4]; Zika virus, VeroE6/TMPRSS2, Baseline response 0 %, Hill slope -0.378, Maximum measured 125.075 %, Maximum response 100 %, Minimum measured 52.976 %, R squared 0.223): > 5.56 µM
